From the supplement of paper PMC10307832

Columns and labels:
Assay in all cases: relative viability (nuclei count vs DMSO), 5 days (fraction); higher = more cells survive
Serdemetan + Navitoclax = compound: c1ccc2c(CCNc3ccc(Nc4ccncc4)cc3)c[nH]c2c1 [Serdemetan] + CC1(C)CCC(c2ccc(Cl)cc2)=C(CN2CCN(c3ccc(C(=O)NS(=O)(=O)c4ccc(N[C@H](CCN5CCOCC5)CSc5ccccc5)c(S(=O)(=O)C(F)(F)F)c4)cc3)CC2)C1 [Navitoclax] (partner 0.5 µM)
Method in brief: (§1)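 Lung cancer cell lines in 1536-well plates got either a single drug or a fixed anchor-drug dose together with five library-drug doses (not always all listed) in √10 steps, by pin tool, on the day after seeding. Nuclei were counted after 5 days, and relative viability is the treated-to-vehicle ratio of nuclei counts. Values are medians of duplicate plates.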

Selisistat + Phenformin = compound: C1CC(C2=C(C1)C3=C(N2)C=CC(=C3)Cl)C(=O)N [Selisistat] + N=C(N)NC(=N)NCCc1ccccc1 [Phenformin] (partner 250 µM)
Method in brief: as §1

Selisistat + Decitabine = compound: C1CC(C2=C(C1)C3=C(N2)C=CC(=C3)Cl)C(=O)N [Selisistat] + Nc1ncn([C@H]2C[C@H](O)[C@@H](CO)O2)c(=O)n1 [Decitabine] (partner 2 µM)
Method in brief: as §1

Selisistat + Trametinib = compound: C1CC(C2=C(C1)C3=C(N2)C=CC(=C3)Cl)C(=O)N [Selisistat] + CC(=O)Nc1cccc(-n2c(=O)n(C3CC3)c(=O)c3c(Nc4ccc(I)cc4F)n(C)c(=O)c(C)c32)c1 [Trametinib] (partner 0.02 µM)
Method in brief: as §1

Cell Line	relative viability (Serdemetan + Navitoclax; first compound 0.04 µM)	relative viability (Serdemetan + Navitoclax; first compound 0.1265 µM)	relative viability (Serdemetan + Navitoclax; first compound 0.4 µM)	relative viability (Serdemetan + Navitoclax; first compound 1.265 µM)	relative viability (Serdemetan + Navitoclax; first compound 4 µM)	relative viability (Selisistat + Phenformin; first compound 0.4 µM)	relative viability (Selisistat + Phenformin; first compound 1.265 µM)	relative viability (Selisistat + Phenformin; first compound 4 µM)	relative viability (Selisistat + Phenformin; first compound 12.65 µM)	relative viability (Selisistat + Phenformin; first compound 40 µM)	relative viability (Selisistat + Decitabine; first compound 0.4 µM)	relative viability (Selisistat + Decitabine; first compound 1.265 µM)	relative viability (Selisistat + Decitabine; first compound 12.65 µM)	relative viability (Selisistat + Decitabine; first compound 40 µM)	relative viability (Selisistat + Trametinib; first compound 0.4 µM)	relative viability (Selisistat + Trametinib; first compound 1.265 µM)	relative viability (Selisistat + Trametinib; first compound 12.65 µM)	relative viability (Selisistat + Trametinib; first compound 40 µM)	relative viability (Selisistat + Decitabine; first compound 4 µM)	relative viability (Selisistat + Trametinib; first compound 4 µM)
NCI-H2347	0.737	0.779	0.712	0.624	0.374	0.4	0.438	0.228	0.382	0.276	0.695	0.633	0.677	0.624	0.266	0.245	0.298	0.285		
NCI-H1993	0.952	0.92	0.78		0.875	0.518	0.545	0.528	0.556	0.537	0.647	0.597	0.655	0.546	0.519	0.496	0.518	0.573		
NCI-H322M	1.05	1.21	1.12	1.43	1.06	0.768	0.837	0.656	0.77	0.915	0.812	0.708	0.747	0.637	0.483	0.575	0.567	0.545		
NCI-H838	1.11	1.14	1.08	1.12	1.32	0.62	0.478	0.346	0.547	0.57	0.557	0.459	0.45	0.454	0.592	0.482	0.516	0.507	0.475	0.511
HARA	1.12	1.11	1.09		0.757	0.412	0.476	0.412	0.396	0.379	0.777	0.529	0.48	0.647	0.659	0.962	0.509	0.377		
NCI-H2087	1.05	1	0.715	0.467	0.64	0.54	0.455		0.44	0.472	0.34	0.295	0.263	0.234	0.194	0.164	0.22	0.202		
NCI-H1437	1.06	1.01	0.99	0.98	0.754	0.354	0.317	0.278	0.29	0.308	0.61	0.597	0.503	0.543	0.558	0.485	0.5	0.477	0.528	0.488
NCI-H1792	0.655	0.587	0.551	0.355	0.476	0.301	0.357		0.324	0.224	0.625	0.497	0.516	0.537	0.493	0.38	0.44	0.44		
ChaGo-K-1		1.15	0.925	0.681	0.899	0.488	0.458	0.439	0.422	0.485	0.486	0.511	0.491	0.502	0.895	0.886	0.895	0.888	0.482	0.881
COR-L23	1.03	1	1.07	0.939	0.81	0.443	0.43	0.458	0.424	0.441	0.596	0.423	0.436	0.411	0.66	0.597	0.614	0.645	0.484	0.656
COR-L 105	0.708	0.871	0.596	0.771	0.722	0.479	0.439		0.371	0.421	0.664	0.731	0.635	0.598	0.45	0.421	0.442	0.512	0.587	0.421
LK-2	0.918	0.889	1.2	0.953	0.746	0.577	0.373	0.385	0.382	0.387	0.397	0.307	0.34	0.294	0.994	0.677	0.656	1.01	0.198	0.711
201T	1.18	1.22	1.2	1.14	1.13	0.449	0.436	0.432	0.41	0.481	0.915	0.816	0.877	0.913	0.761	0.655	0.691	0.749	0.845	0.71
HCC-44	1.13	1.04	0.972	0.756	0.741	0.159		0.168	0.226	0.353	0.976	1.01	1.01	1.07	1.1	1.22	1.07	1.05	0.943	1.13
NCI-H596	0.967	0.922	0.741	0.465	0.34	0.742	0.816	0.584	0.593	0.716	1.07	1.02	1.09	1.07	0.864	0.843	0.733	0.813	0.862	0.831
H3255	0.437	0.538	0.485	0.362	0.404	0.375	0.363	0.327	0.405	0.374	0.624	0.628	0.578	0.61	0.664	0.526	0.636	0.637	0.562	0.584
NCI-H647	1.06	1.14	1.06	0.844	0.83	0.561	0.499	0.43	0.324	0.678	0.517	0.405	0.359	0.487	0.467	0.457	0.472	0.474	0.218	0.449

Cell Line	relative viability (Serdemetan + Navitoclax; first compound 0.04 µM)	relative viability (Serdemetan + Navitoclax; first compound 0.1265 µM)	relative viability (Serdemetan + Navitoclax; first compound 0.4 µM)	relative viability (Serdemetan + Navitoclax; first compound 1.265 µM)	relative viability (Serdemetan + Navitoclax; first compound 4 µM)	relative viability (Selisistat + Phenformin; first compound 0.4 µM)	relative viability (Selisistat + Phenformin; first compound 1.265 µM)	relative viability (Selisistat + Phenformin; first compound 4 µM)	relative viability (Selisistat + Phenformin; first compound 12.65 µM)	relative viability (Selisistat + Phenformin; first compound 40 µM)	relative viability (Selisistat + Decitabine; first compound 0.4 µM)	relative viability (Selisistat + Decitabine; first compound 1.265 µM)	relative viability (Selisistat + Decitabine; first compound 12.65 µM)	relative viability (Selisistat + Decitabine; first compound 40 µM)	relative viability (Selisistat + Trametinib; first compound 0.4 µM)	relative viability (Selisistat + Trametinib; first compound 1.265 µM)	relative viability (Selisistat + Trametinib; first compound 12.65 µM)	relative viability (Selisistat + Trametinib; first compound 40 µM)	relative viability (Selisistat + Decitabine; first compound 4 µM)	relative viability (Selisistat + Trametinib; first compound 4 µM)
NCI-H2023	0.929	1.05	0.99	0.682	0.344	0.413	0.398	0.455	0.312	0.357	0.233	0.198	0.216	0.202	0.608	0.473	0.47	0.573	0.219	0.607
NCI-H23	0.887	0.848	0.996	0.809	0.623	0.731	0.824	0.658	0.773	0.786	0.303	0.32	0.328	0.355	0.402	0.318	0.427	0.485		
NCI-H1944	1.07	1.04	0.978		0.376	0.209	0.201		0.196	0.214	0.506	0.402	0.452	0.465	0.437	0.383	0.44	0.446	0.441	0.455
NCI-H1793	0.337	0.408	0.39	0.349	0.263	0.398	0.366		0.303	0.388	0.489	0.459	0.552	0.616	0.38	0.431	0.438	0.381		
NCI-H520	1	1.09	1.07	0.762	0.924	0.598	0.485	0.577	0.533	0.528	0.586	0.512	0.592	0.493	0.545	0.599	0.681	0.637	0.536	0.651
NCI-H460	1.03	1.04	1.13	0.303	0.0983	0.598	0.565	0.366	0.495	0.571	0.474	0.499	0.467	0.513	0.129	0.128	0.117	0.142	0.571	0.0976
EKVX	0.862	0.888	0.973	0.791	0.91	0.221	0.243	0.222	0.23	0.249	0.415	0.355	0.367	0.368	0.383	0.392	0.379	0.48	0.339	0.324
EPLC-272H	1.11	1.15	0.822	0.632	0.691	0.302	0.322		0.288	0.296	0.365	0.389	0.382	0.364	0.294	0.287	0.284	0.33		
NCI-H1395	0.976	1.07	1.08	0.923	0.815	0.509	0.432	0.427	0.42	0.42	0.781	0.633	0.657	0.809	1.13	0.939	0.979	0.917		
NCI-H2126	0.841	0.869	0.795	0.704	0.825	0.516	0.489	0.499	0.537	0.551	0.618	0.574	0.599	0.606	0.557	0.57	0.555	0.605	0.579	0.565
LXF-289	0.931	0.927	0.884	0.759	0.749	0.503	0.517	0.475	0.499	0.538	0.425	0.379	0.355	0.431	0.72	0.727	0.69	0.731	0.337	0.646
NCI-H2009	1.11	1.12	1.17	1.06	1.01	0.509	0.483	0.366	0.449	0.422	0.437	0.338	0.45	0.394	0.285	0.278	0.259	0.282	0.372	0.287
NCI-H2405	0.813	1.03	1.01	0.921	0.721	0.401	0.333	0.222	0.393	0.397	0.881	0.78	0.748	0.697	0.676	0.602	0.601	0.682		
NCI-H1755	0.973	0.976	0.867	0.527	0.448	0.645	0.615	0.585	0.559	0.618	0.787	0.741	0.729	0.781	0.83	0.883	0.764	0.841	0.74	0.783
HCC-78	0.758	0.898	0.774	0.756	0.384	0.774	0.815	0.54	0.685	0.744	0.768	0.794	0.66	0.646	0.783	0.779	0.744	0.732	0.6	0.696
LOU-NH91	0.696	0.74		0.534	0.581	0.822	0.691	0.627	0.71	0.728	0.815	0.795	0.787	0.788	0.805	0.799	0.798	0.776	0.784	0.767
NCI-H3122	0.975	0.951	1		1.04	0.406	0.367	0.294	0.369	0.371	0.387	0.502	0.499	0.4	0.199	0.258	0.3	0.213		
